Experimental data: patent US5424312A, “Aminoalkyl-substituted 2-amino-1,3,4-thiadiazoles, the preparation and use thereof” (BASF Aktiengesellschaft, priority 1991, dated 1995)
Counter-ions that a name gives are not always drawn. Like-named read-outs stand apart in the source and are kept apart here.

Target: T1, dopamine D2 receptor (Rattus norvegicus, UniProt P61169)
T1 construct: Striata from rats (Sprague Dawley, Charles River) were homogenized immediately after removal; from tissue; host or cells: rat striatum (Sprague Dawley, Charles River), membranes
T1 sequence (P61169 whole entry): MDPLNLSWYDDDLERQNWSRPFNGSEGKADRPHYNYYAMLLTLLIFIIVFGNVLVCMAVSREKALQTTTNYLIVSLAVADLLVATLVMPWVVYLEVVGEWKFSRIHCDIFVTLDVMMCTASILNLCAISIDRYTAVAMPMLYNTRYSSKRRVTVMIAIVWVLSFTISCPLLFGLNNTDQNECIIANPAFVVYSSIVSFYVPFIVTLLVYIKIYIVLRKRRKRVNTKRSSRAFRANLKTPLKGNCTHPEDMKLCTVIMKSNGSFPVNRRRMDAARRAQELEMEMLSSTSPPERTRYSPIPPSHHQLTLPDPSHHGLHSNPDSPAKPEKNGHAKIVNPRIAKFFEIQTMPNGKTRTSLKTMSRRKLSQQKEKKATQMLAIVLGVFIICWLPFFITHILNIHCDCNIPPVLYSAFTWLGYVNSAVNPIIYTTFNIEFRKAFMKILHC
Assay: Receptor binding assay with 3H-ADTN on rat striatal membranes: affinity for the dopamine D2 receptor
Set-up: species or system rat (Sprague Dawley)
Procedure: The effects of the novel compounds can be shown in the receptor binding assay as follows:
Striata from rats (Sprague Dawley, Charles River) were homogenized immediately after removal in 0.32M sucrose solution (0° C.). The homogenate was filtered through gauze, the filtrate was centrifuged at 1000×g (5 min at 4° C.) and the resulting supernatant was centrifuged at 40000×g (4C 10 min) The residue (membranes) was taken up in incubation buffer (50 mM tris-HCl, 1 mM MgCl2 and 0.1% ascorbic acid, pH 7.4) and incubated at 37° C. for 20 min. The residue was subsequently washed 2× with incubation buffer by resuspension and recentrifugation. The membranes were frozen in portions in liquid nitrogen.
The assay mixtures (1 ml) were composed of membranes (380 μg of protein), 1 nM ^3 H-ADTN (NEN, Dreieich Germany, specific radioactivity 1.4 TBq/mmol) and 0.1 μM SCH 23390 (total binding) or a) with the addition of 50 nM spiperone (non-specific binding) or b) with test substance. The mixtures were prepared in triplicate.
After the incubation (40 min at 25° C.) the mixtures were filtered through glass fiber filters (Whatman GF/B) and briefly washed with ice-cold washing buffer (tris-HCl, pH 7.4). The radioactivity retained on the filters was determined by liquid scintillation counting. The non-specific binding comprised about 40-50% of the total binding.
The evaluation of the competition plots and the determination of the dissociation constant took place by iterative non-linear regression analysis based on the "ligand" program (Muson and Rodbard: Anal. Biochem. 107 (1980) 220).
Affinity of the test substances for the dopamine D2 receptor

[1] = rat striatum membranes, 1 nM 3H-ADTN, 0.1 μM SCH 23390, non-specific binding with 50 nM spiperone, 40 min at 25° C., read-out: Affinity of the test substances for the dopamine D2 receptor, Ki

Row | SMILES | Ki [1] | Ki
1 | Nc1nnc(CCN2CC=C(c3ccccc3)CC2)s1 [Example 4, 2-Amino-5-[2-(1,2,3,6-tetrahydro-4-phenylpyridyl)-ethyl]-1,3,4-thiadiazolehydrochloride] | 0.03 µM | –
2 | Nc1nnc(CCN2CC=C(c3ccc(Cl)cc3)CC2)s1 [Example 7, 2-Amino-5-[2-(4-(4-chlorophenyl)-l,2,3,6-tetrahydropyridyl)ethyl]-1,3,4-thiadiazole dihydrochloride] | 0.03 µM | –
3 | Nc1nnc(CCCN2CC=C(c3ccccc3)CC2)s1 [Example 10, 2-Amino-5-[3-(1,2,3,6-tetrahydro-4-phenylpyridyl)propyl]-1,3,4-thiadiazolehydrochloride] | 0.032 µM | –
4 | Nc1nnc(CCCCN2CC=C(c3ccccc3)CC2)s1 [Example 18, 2-Amino-5-[4-(1,2,3,6-tetrahydro-4-phenylpyridinyl)-butyl]-1,3,4-thiadiazole] | – | 0.005 µM
5 | Nc1nnc(CCCCCN2CC=C(c3ccccc3)CC2)s1 [Example 19, fumarate] | – | 0.01 µM
6 | Nc1nnc(CCCCN2CCN(c3ccccn3)CC2)s1 [Example 21, 2-Amino-5-[4-(4-pyridin-2-ylpiperazinyl)butyl]-1,3,4-thiadiazole] | 0.044 µM | –
7 | Nc1nnc(CCN2CCC(c3ccccc3)CC2)s1 [Example 24, 2-Amino-5-[2-(4-phenylpiperidinyl)ethyl]-1,3,4-thiadiazole] | 0.037 µM | –
